Here are results for 55 compounds from PubChem BioAssay AID588449 (Broad Institute, 2011).

SMILES strings stand for the structures. Activity calls are given as the source filed them.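 Rule for the calls: active = inhibitors whose fitted AC50 is no more than ten times their highest valid tested dose; inconclusive = flat fit with 30 to 70% inhibition, or poor fit; inactive = the rest.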 Where only a bound is given, the exact number is not on record here.

The first assay addresses Dual specificity tyrosine-phosphorylation-regulated kinase 1A (Rattus norvegicus) (UniProt Q63470). The assay can be described thus: Dyrk1A kinase inhibitors, NFAT signaling, dose response, biochemical, cherry-pick, plate reader, 2124-03 (AID 588449). To be noted: recombinant Dyrk1A, ADP-Glo luminescence, NFATc1 peptide.
As for `c1nc(NCC2CCCO2)c2cc(-c3ccc4c(c3)OCO4)ccc2n1` (stereo not given), the half-maximal activity concentration (AC50) is below 5.6 nM. In the case of `Clc1ccc(Nc2nccc(-c3ccc4c(c3)OCO4)n2)cc1`, the concentration at half-maximal activity (AC50) was 228 nM. In the case of `CN(Cc1cccs1)c1ncnc2ccc(-c3ccc4c(c3)OCO4)cc12`, the concentration at half-maximal activity (AC50) was 49.2 nM. On the same count and under the same terms, the same measure for `Cc1nc(CNc2ncnc3ccc(-c4ccoc4)cc23)cs1`: 907 nM. For `Cc1csc(CN(C)c2ncnc3ccc(-c4ccc5c(c4)OCO5)cc23)n1`, the AC50 was 1970 nM. Same read-out and setting: under `Brc1ccc(CNc2nccc(-c3ccc4c(c3)OCO4)n2)cc1Br` stands 209 nM. Turning to `Clc1ccc(CNc2nccc(-c3ccc4c(c3)OCCO4)n2)cc1Cl`, the AC50 was 19.8 nM. Same read-out and setting: the same measure for `CS(=O)(=O)CCNCc1ccc(-c2ccc3ncnc(Nc4ccc(OCc5cccc(F)c5)c(Cl)c4)c3c2)o1`: > 12000 nM (inactive); for `FC(F)(F)c1cccc(Nc2nccc(-c3ccc4c(c3)OCO4)n2)c1`: below 5.6 nM. As to `Clc1ccc(CNc2ncncc2-c2ccc3c(c2)OCO3)cc1`, the AC50 is 9670 nM. On the same count and under the same terms, the same measure for `CN(C)c1ccc(-c2nccc(NCc3cccs3)n2)cc1`: 5460 nM. For the compound `c1cc(-c2ccc3c(c2)OCO3)nc(Nc2ccc3c(c2)OCO3)n1`, the concentration at half-maximal activity (AC50) was below 5.6 nM. Regarding `Cc1c(-c2ccnc(NCc3ccc(Cl)cc3)n2)sc(=O)n1C`, the AC50 was 109 nM. Still for that read-out and setting: under `Clc1ccc(CNc2ccnc(-c3ccc4[nH]ncc4c3)n2)cc1Cl` stands 19.1 nM. On the same count and under the same terms, the same measure for `Cc1ccc(CNc2ncnc3ccc(-c4ccoc4C)cc23)o1`: 2560 nM; for `c1cncc(CNc2nccc(-c3ccc4cn[nH]c4c3)n2)c1`: 217 nM; for `CCCNc1ncnc2ccc(-c3ccc4c(c3)OCO4)cc12`: 36.5 nM. On to `CN(Cc1nccs1)c1ncnc2ccc(-c3ccc4c(c3)OCO4)cc12`, for which the AC50 was below 5.6 nM.

For `CCOC(=O)c1ccc(-c2ccc3ncnc(N(C)Cc4sccc4C)c3c2)o1`, the AC50 was 486 nM.

Take `c1csc(CNc2ncnc3ccc(-c4ccoc4)cc23)c1`: the AC50 was 326 nM. For the compound `Clc1ccccc1-c1ccc2ncnc(NCc3ccc4c(c3)OCO4)c2c1`, the AC50 is 3160 nM.

Turning to `CCN(Cc1cccs1)c1ncnc2ccc(-c3ccc4c(c3)OCO4)cc12`, the AC50 was 18 nM. Still for that read-out and setting: the same measure for `c1cncc(CNc2ccnc(-c3ccc4[nH]ncc4c3)n2)c1`: 711 nM; for `Fc1c(-c2ccc3ncnc(NCc4cccs4)c3c2)ccc2c1OCO2`: 83.2 nM; for `O=[N+]([O-])c1cc(Nc2nccc(-c3ccc4c(c3)OCO4)n2)cc(C(F)(F)F)c1`: 2850 nM. In the case of `Cc1ccsc1CN(C)c1ncnc2ccc(-c3ccoc3)cc12`, the concentration at half-maximal activity (AC50) is 60.9 nM. For `c1cncc(CNc2cc(-c3ccc4c(c3)OCO4)ncn2)c1`, the AC50 was 1970 nM. Same read-out and setting: the same measure for `Clc1ccc(CNc2nccc(-c3ccc4[nH]ncc4c3)n2)cc1Cl`: 114 nM; for `c1cncc(CNc2nccc(-c3ccc4[nH]ncc4c3)n2)c1`: 123 nM; for `c1cncc(CNc2ccnc(-c3ccc4cn[nH]c4c3)n2)c1`: 3540 nM.

Regarding `Clc1cc(Cl)cc(CNc2cc(-c3ccc4c(c3)OCO4)ncn2)c1`, the half-maximal activity concentration (AC50) is 340 nM. Take `Clc1ccc(CNc2nccc(-c3ccc4c(c3)OCO4)n2)cc1Cl`: the AC50 was 84.3 nM. Consider `Cc1ccsc1CN(C)c1ncnc2ccc(-c3ccc(CO)o3)cc12`, for which the AC50 was 905 nM. For `c1nc(NCC2CCCC2)c2cc(-c3ccc4c(c3)OCO4)ccc2n1`, the AC50 is 14.6 nM. On to `Cc1ccc(CN(C)c2ncnc3ccc(-c4ccc5c(c4)OCO5)cc23)o1`, for which the AC50 is 10.4 nM. Take `Cc1ccc(CNc2ncnc3ccc(-c4ccc5c(c4)OCO5)cc23)o1`: the AC50 is 62.5 nM. For the compound `Clc1ccc(CNc2cc(-c3ccc4c(c3)OCO4)ncn2)cc1`, the AC50 was 11300 nM. The same measure, in the same setting: the same measure for `Cc1c(-c2ccnc(NCc3cccnc3)n2)sc(=O)n1C`: 410 nM; for `Cc1ccsc1CNc1ncnc2ccc(-c3ccc4c(c3)OCO4)cc12`: 7.9 nM; for `c1coc(CCNc2ncnc3ccc(-c4ccc5c(c4)OCO5)cc23)c1`: 74.8 nM. On to `Clc1ccc(CNc2nccc(-c3ccc4cn[nH]c4c3)n2)cc1Cl`, for which the concentration at half-maximal activity (AC50) was 21.6 nM. Same read-out and setting: under `Clc1cc(Cl)cc(CNc2ncncc2-c2ccc3c(c2)OCO3)c1` stands 1060 nM; under `c1csc(CCNc2ncnc3ccc(-c4ccc5c(c4)OCO5)cc23)c1`, below 5.6 nM. For `c1nc(NCC2CCCOC2)c2cc(-c3ccc4c(c3)OCO4)ccc2n1` (stereo not given), the concentration at half-maximal activity (AC50) is 6.72 nM.

For the compound `COc1ccc(-c2nccc(NCc3ccc(C)cc3)n2)cc1`, the concentration at half-maximal activity (AC50) is below 5.6 nM. On to `Cc1nc(CNc2ncnc3ccc(-c4ccc5c(c4)OCO5)cc23)cs1`, for which the AC50 was 168 nM. On the same count and under the same terms, under `Cc1noc(CN(C)c2ncnc3ccc(-c4ccc5c(c4)OCO5)cc23)n1` stands 21.1 nM.

In the case of `c1cncc(CNc2nccc(-c3ccc4c(c3)OCO4)n2)c1`, the AC50 was 48 nM. Still for that read-out and setting: under `Cc1nc(CN(C)c2ncnc3ccc(-c4ccc5c(c4)OCO5)cc23)cs1` stands 20.8 nM; under `Brc1cc(Br)cc(CNc2nccc(-c3ccc4c(c3)OCO4)n2)c1`, 8.38 nM; under `Cc1occc1CNc1ncnc2ccc(-c3ccc4c(c3)OCO4)cc12`, 121 nM.

Staying with this assay, now noted: recombinant Dyrk1A, ADP-Glo luminescence, NFATc1 peptide; at 12 µM (top of the series).
In the case of `Cn1ccc2cc(-c3ccc4ncnc(NCc5cccc(F)c5)c4c3)ccc21`, the “activity change, negative = inhibition” value was “inactive”. On to `Cn1ccc2cc(-c3ccc4ncnc(NCc5ccc6c(c5)OCO6)c4c3)ccc21`, for which the “activity change, negative = inhibition” value was “inactive”.

For `c1csc(CNc2ncnc3ccc(-c4ccc5c(c4)OCO5)cc23)n1`, the “activity change, negative = inhibition” value is “inactive”. On the same count and under the same terms, under `Cc1cccc(CNc2ncnc3ccc(-c4cccc(Cl)c4)cc23)c1` stands “inactive”.
